Results on one substance are retold here after US11078262B2, “High viscosity macromolecular compositions for treating ocular conditions” (ALLERGAN, INC., priority 2007, dated 2021).

The subject of this data set is macula edema with central retinal vein occlusion and/or branch retinal vein occlusion. The data set is described as follows: Treatment of macular edema with intravitreal MAAC composition (ETDRS visual acuity). The data set is classed as in vivo, human. To be noted: patient; 1 mg intravitreal every 4 months; twelve months after the first injection. Here is the method:
An obese patient with symptoms of diabetes presents with vision loss due to macula edema with central retinal vein occlusion and/or branch retinal vein occlusion. They receive intravitreal injection of 1 mg of a high viscosity MAAC (polymeric hyaluronate based) solution containing COMPOUND D, such as the Example 13 formulation. Equivalent injections are made every 4 months.

On to “siRNA Z (chain 1 CUGAGUUUAAAAGGCACCCTT; chain 2 TTGACUCAAAUUUUCCGUGGG; chemically modified, pattern not given here; one strand is listed 3' to 5') [COMPOUND D]”, for which the “improved best corrected visual acuity from baseline (ETDRS chart)” value was “fifteen”.
